Values quoted from earlier work, collected in article PMC10801393 (Clinical and Translational Science, 2024).
Like-named read-outs stand apart in the source and are kept apart here.

Experiments:
[1] = not given; remark: listed apart in the source
[2] = tamoxifen 20 mg/day

Cc1ncc2n1-c1ccc(Cl)cc1C(c1ccccc1F)=NC2 [midazolam]
oral clearance geometric mean (postmenopausal group): 24.10 mL/min/kg
oral clearance geometric mean (premenopausal group): 30.09 mL/min/kg

CC(C)(C(=O)O)c1ccc(C(O)CCCN2CCC(C(O)(c3ccccc3)c3ccccc3)CC2)cc1 (centres unmarked) [fexofenadine, Fexofenadine]
BDDCS class [1]: class 3

CC/C(=C(\c1ccccc1)c1ccc(OCCN(C)C)cc1)c1ccccc1 [tamoxifen, Tamoxifen]
steady‐state plasma concentration (C ss) ([2]; postmenopausal patients): 201.23 ng/mL
steady‐state plasma concentration (C ss) ([2]; premenopausal patients): 116.95 ng/mL
